The values below come from patent US5401853A, “Thiadiazole derivatives for the treatment of depressive states” (Laboratorio Farmaceutico C.T. S.r.l., priority 1992, dated 1995).

Where two headings read alike, the source gives them in different places.

One may read the LD50 as the dose expected to kill half of the subjects tested.

One series relates to rats. Put plainly: Social Interaction test in rats (anxiolythic activity). The format is in vivo, Sprague-Dawley male rats. The note with it: for Social Interaction increase (%): 1 hour before test, vs controls. The source says: The behaviouristic Social Interaction test found by FILE was used. (Animal models of psychiatric disorders, vol. 1 Karger, Basel, pp 151-166).
It consists in an experimental procedure permitting to evaluate the influence of the pharmacological treatment on the spontaneous behaviour of the rat, by means of the social component which in this animal is particularly accentuated.
Sprague-Dawley male rats weighing about 250 g are used. After a normal stabling period (2 weeks), the animal are isolated in smaller cages (267×207×140 mm surface 410 cm^2) for a period of about 5 days.
Then the rats are gathered into couples, avoiding that weight difference between the two animals overcomes 10 g and that the couple components had not previously stabled together.
The couple thus gathered are assigned to the respective treatment group.
Diazepam was utilized as the positive control drug: 1,25 mg/kg are intraperitoneally administered 30' before carrying out the test.
The compounds to be tested are administered 1 hour before carrying out the test.
The box utilized [55×55×30 cm (height)] for the animal observation is white, completely washable and provided with a floor split up into 25 squares.
A 100 Watt lamp is placed upon the box at 50 cm from the floor. The test is realized in a remote room whose only light source is represented by the lamp lighting the box.
The evaluation is carried out in blind. The animals are observed indirectly, by means of a mirror suitably placed.
Evaluated parameters: time passed in Social Interaction (sniffing pursuit, grooming, boxing etc.).
The box is systematically cleaned up after every test.
The results are expressed as a function of a percentage increase of Social Interaction of the treated animals in comparison with the controls.

The test system of the next series is mice. Put plainly: Dispair test (Porsolt) in mice. The class given is in vivo, Swiss strain male mice (CD-1 Charles River). To be noted: for immobility duration: 1 hour before test. On the procedure: This behaviouristic test conceived by Porsolt (1977 --Nature, 266 730-732 is generally utilized to evaluate the antidepressant activity.
Swiss strain male mice of average weight of 30 g (CD -1 Charles River) casually assigned to the different treatment groups are used.
The method consists in placing the animal in a plexiglas cylinder 25 cm high and with a diameter of 9 cm filled with water at 24° C. up to a level of 6 cm.
The test lasts 6 minutes and the time in which the animal lets itself float without reacting is measured starting from the 2nd minute (immobility duration).
The animals ape treated by intraperitoneal route (injection volume 10 ml/kg) 1 hour before the test.
The evaluation is carried out in blind. The statistical analysis of the results is carried out where it is possible by means of the T-Student test, otherwise the non parametric test of Mann Whitney is used.

The next series is described as follows: Solubility in solvents. The format is physicochemical.
A short description of series [1]: Acute toxicity (LD50) in mice. To be noted: mouse, in vivo, read-out: LD50 (DL50).

For `Nc1nnc(SCc2ccccc2)s1` [B16, 2-amino-5-benzylmercapto-1,3,4-thiadiazole], the “Social Interaction increase (%)” value with rats (0.5 mg/kg) came to 40%; in the series with rats (1 mg/kg), 67%; in the series with rats (2.5 mg/kg) it was 94%; in the series with rats (5 mg/kg), 51%. In the series on rats (0.5-5 mg/kg), the “shape of dose-response curve, Social Interaction” value is recorded as “Gaussian shape”. The immobility duration in the series on mice (1 mg/kg i.p.) was 197 ± 22; with mice (5 mg/kg i.p.), 171 ± 23; in the series on mice (10 mg/kg i.p.), 132 ± 45; in the series with mice (15 mg/kg i.p.) it was 186 ± 14; in the series on mice (20 mg/kg i.p.), 199 ± 16. The inhibition in vivo at 5 mg/kg in the series on mice (Mus musculus, ip, 1 h, 5 mg/kg i.p., vs control (dosage 0), read-out: immobility duration < % (decrease)) turned out to be 16%. In the series on mice (Mus musculus, ip, 1 h, 10 mg/kg i.p., vs control (dosage 0), read-out: immobility duration < % (decrease)), the inhibition in vivo at 10 mg/kg was 35%. The inhibition in vivo at 15 mg/kg in the series with mice (Mus musculus, ip, 1 h, 15 mg/kg i.p., vs control (dosage 0), read-out: immobility duration < % (decrease)) was determined as 8%. For the same compound, the minimal effective dose in the series on mice (Mus musculus, ip, 1 h, Dispair test, i.p., read-out: active dosage) lay within 5 to 10 mg/kg. The “solubility in alcohols, chloroform, ethyl acetate, acetone” value in “Solubility in solvents” is “soluble”. Moreover, the “solubility in ether and water” value in “Solubility in solvents” is given as “insoluble”. The LD50 in series [1] (ip) was > 600 mg/kg; in series [1] (po, per os), > 600 mg/kg.
